Structures are written as SMILES.

For the experiment, the system named is immunoglobulin light chain protein WIL-FL T46L. Briefly: Differential scanning fluorimetry (thermal shift) assay. In kind it is binding. Particulars: Table B; temperature shift [Tm]compound-[Tm]vehicle; recombinant WIL-FL T46L. In general terms: Differential scanning fluorimetry follows unfolding on heating by fluorescence.

As for `Cc1cc(N2CC[C@](C)(c3ccccc3)C2)cn2nc(C(=O)N3CC[C@@]4(CCN(C(=O)[C@@H]5CC[C@H](C(=O)O)C5)C4)C3)nc12` [Compound 708, (1S,3R)-3-[(5R)-7-[8-methyl-6-[(3R)-3-methyl-3-phenyl-pyrrolidin-1-yl]-[1,2,4]triazolo[1,5-a]pyridine-2-carbonyl]-2,7-diazaspiro[4.4]nonane-2-carbonyl]cyclopentanecarboxylic acid], the DSF entry is listed as “***** (>2.5° C.=*****)”.
On to `Cc1cc(N2CC[C@](C)(c3ccccc3)C2)cn2nc(C(=O)N3CC[C@@]4(CCN(C(=O)C5CC(C)(C(=O)O)C5)C4)C3)nc12` (stereo partly drawn) [Compound 709], for which the DSF result is listed as “***** (>2.5° C.=*****)”.
Regarding `Cc1ccc(N2CC[C@@]3(CCN(C(=O)c4nc5c(C)cc(N6CC[C@](C)(c7ccccc7)C6)cn5n4)C3)C2)nc1C(=O)O` [Compound 710], the DSF result was “***** (>2.5° C.=*****)”.
With `Cc1cc(N2CC[C@](C)(c3ccccc3)C2)cn2nc(C(=O)N3CC[C@@]4(CCN(c5ccc(F)c(C(=O)O)n5)C4)C3)nc12` [Compound 711] the entry was “***** (>2.5° C.=*****)”; with `Cc1cc(N2CC[C@](C)(c3ccccc3)C2)cn2nc(C(=O)N3CC[C@@]4(CCN(C(=O)C56CC(C(=O)O)(C5)C6)C4)C3)nc12` [Compound 712], “***** (>2.5° C.=*****)”; with `Cc1cc(N2CC[C@](C)(c3ccccc3)C2)cn2nc(C(=O)N3CC[C@@]4(CCN(C(=O)C56CCC(C(=O)O)(C5)C6)C4)C3)nc12` [Compound 713], “***** (>2.5° C.=*****)”.
To `Cc1cc(N2CC[C@](C)(c3ccccc3)C2)cn2nc(C(=O)N3CC[C@@]4(CCN(c5cc(C(=O)O)ccn5)C4)C3)nc12` [Compound 714] belongs “***** (>2.5° C.=*****)”.
For the molecule `Cc1cc(N2CC[C@](C)(c3ccccc3)C2)cn2nc(C(=O)N3CC[C@@]4(CCN(C(=O)c5cccc(C(=O)O)n5)C4)C3)nc12` [Compound 715], the DSF entry is recorded as “***** (>2.5° C.=*****)”.
Consider `Cc1cc(N2CC[C@](C)(c3ccccc3)C2)cn2nc(C(=O)N3CCC4(CCN(c5nccc(C(=O)O)n5)C4)C3)nc12` (stereo partly drawn) [Compound 716], for which the DSF entry is listed as “***** (>2.5° C.=*****)”.
To `Cc1cc(N2CC[C@](C)(c3ccccc3)C2)cn2nc(C(=O)N3CCC4(CCN(c5cncc(C(=O)O)c5)C4)C3)nc12` (stereo partly drawn) [Compound 717] belongs “***** (>2.5° C.=*****)”.
As for `COc1ncc(N2CC[C@@]3(CCN(C(=O)c4nc5c(C)cc(N6CC[C@](C)(c7ccccc7)C6)cn5n4)C3)C2)cc1C(=O)O` [Compound 718], the DSF result was “***** (>2.5° C.=*****)”.
To `COc1cc(C(=O)O)cc(N2CC[C@@]3(CCN(C(=O)c4nc5c(C)cc(N6CC[C@](C)(c7ccccc7)C6)cn5n4)C3)C2)n1` [Compound 719] belongs “***** (>2.5° C.=*****)”.
Turning to `Cc1cc(N2CC[C@](C)(c3ccccc3)C2)cn2nc(C(=O)N3CC[C@@]4(CCN(C5CCCC(C(=O)O)C5)C4)C3)nc12` (stereo partly drawn) [Compound 720], the DSF entry is reported as “***** (>2.5° C.=*****)”.
To `Cc1cc(N2CC[C@](C)(c3ccccc3)C2)cn2nc(C(=O)N3CC[C@@]4(CCN(C(=O)CC(C)(C)O)C4)C3)nc12` [Compound 721] belongs “***** (>2.5° C.=*****)”; to `Cc1cc(N2CC[C@](C)(c3ccccc3)C2)cn2nc(C(=O)N3CCC4(CCC(N5CC(C(=O)O)C5)C4)C3)nc12` (stereo partly drawn) [Compound 722], “***** (>2.5° C.=*****)”.
For the molecule `Cc1cc(N2CC[C@](C)(c3ccccc3)C2)cn2nc(C(=O)N3CCC4(CCN(c5nc(C(=O)O)ccc5C#N)C4)C3)nc12` (stereo partly drawn) [Compound 724], the DSF entry was “***** (>2.5° C.=*****)”.
With `Cc1cc(N2CC[C@](C)(c3ccccc3)C2)cn2nc(C(=O)N3CC[C@@]4(CCN(C5CC(C)(C(=O)O)C5)C4)C3)nc12` (stereo partly drawn) [Compound 725] the entry was “***** (>2.5° C.=*****)”; with `Cc1cc(N2CC[C@](C)(c3ccccc3)C2)cn2nc(C(=O)N3CC[C@@]4(CCN(C(=O)C56COC(C(=O)O)(C5)C6)C4)C3)nc12` [Compound 726], “***** (>2.5° C.=*****)”.

Values taken from patent US20260285857A1, “BICYCLIC AND HETEROCYCLIC AMIDE COMPOUNDS” (priority 2024, published 2026).
